Data set [1] is described as follows: Tissue distribution of ketamine and metabolites (plasma and brain levels). How it is done: Mice were euthanized by a 30-sec exposure to 3% isoflurane and decapitated at 10, 30, 60, 240 or 480 minutes following drug administration. Trunk blood was collected in EDTA-containing tubes and centrifuged at 8000 rpm for 6 min (4° C.). Plasma was collected and stored at −80° C. until analysis. Whole brains were simultaneously collected, rinsed with phosphate-buffered saline, immediately frozen in dry ice and stored at −80° C. until analysis.
The concentrations of ketamine and its metabolites in plasma and brain tissue were determined by achiral liquid chromatography-tandem mass spectrometry. For plasma samples, the calibration standards for (R,S)-ketamine, (R,S)-norketamine, (2R,6R;2S,6S)-HNK and (R,S)-DHNK ranged from 10,000 ng/ml to 19 ng/ml. The quantification of (R,S)-ketamine, (R,S)-norketamine, (R,S)-DHNK, and the HNK stereoisomers was accomplished by calculating area ratios using D4-ketamine (10 μl of 10 μg/ml solution) as the internal standard. Whole brains were suspended in 990 μl of water:methanol (3:2, v/v), D4-ketamine (10 μl of 10 μg/ml) added and the resulting mixture homogenized on ice with a polytron homogenizer and centrifuged at 21,000×g for 30 min. The supernatant was collected and processed using 1 ml Oasis HLB solid phase extraction cartridges (Waters Corp., Waltham, Mass.). The cartridges were preconditioned with 1 ml of methanol, followed by 1 ml of water and then 1 ml ammonium acetate [10 mM, pH 9.5]. The supernatants were added to the cartridges, followed by 1 ml of water and the compounds were eluted with 1 ml of methanol. The eluent was transferred to an autosampler vial for analysis. QC standards for the analysis of (R,S)-ketamine, (R,S)-norketamine, (R,S)-DHNK and (2R,6R;2S,6S)-HNK ranged from 10,000 ng/ml to 19 ng/ml, and quantification was accomplished using D4-(R,S)-ketamine as the internal standard. QC standards were prepared daily by adding 10 μl of the appropriate standard solution and 10 μl of internal standard solution (100 ng/ml) to methanol.

Data set [2] has as its system male CD-1 mice. The data set is described as follows: Forced-swim test (FST). It counts as in vivo. To be noted: for antidepressant effect in the FST (immobility time): i.p. The source says: (§1) Male CD-1 mice (8-10 weeks old, Charles River Laboratories, Mass., USA) were housed in groups of four-five per cage with a constant 12-hour light/dark cycle (lights on/off at 07:00/19:00). Food and water were available ad libitum. Mice acclimatized to the new environment for seven days prior to the start of the experiments. For the whole-cell NMDA current electrophysiological recordings, male Sprague-Dawley rats (housed three per cage; Charles River, Wilmington, Mass.) were used. EPSC recording were done from rats at postnatal day 24-25. All experimental procedures were approved by the University of Maryland, Baltimore Animal Care and Use Committee and were conducted in full accordance with the National Institutes of Health Guide for the Care and Use of Laboratory Animals.
Mice were tested in the FST 1 hour and/or 24 hours post-injection. During the FST, mice were subjected to a 6-min swim session in clear Plexiglass cylinders (30 cm height×20 cm diameter) filled with 15 cm of water (23±1° C.). The FST was performed in normal light conditions (800 Lux). Sessions were recorded using a digital video-camera. Immobility time, defined as passive floating with no additional activity other than that necessary to keep the animal's head above water, was scored for the last 4 min of the 6-min test by a trained observer blind to the treatment.
All drugs were dissolved in 0.9% saline, and administered intraperitoneally (i.p.) in a volume of 7.5 ml/kg of body mass. Corticosterone (4-pregnen-11β, 21-diol-3, 20-dione 21-hemisuccinate; Steraloids, Newport, R.I., USA) was dissolved in tap water. For the electrophysiology recordings, test drugs were diluted in artificial cerebrospinal fluid (AC SF).

For data set [3], the system named is male CD-1 mice. The data set is described as follows: Learned helplessness (LH). The settings on record: single injection, test 24 hours after administration. Type of data set: in vivo.
From the text: as §1
The LH paradigm consisted of three different phases, i.e., inescapable shock training, LH screening, and the LH test. For the inescapable shock portion of the test (Day 1), the animals were placed in one side of two-chambered shuttle boxes (34 cm height×37 cm width×18 cm depth; Coulbourn Instruments, PA, USA), with the door between the chambers closed. Following a five-min adaptation period, 120 inescapable foot-shocks (0.45 mA, 15 sec duration, randomized average inter-shock interval of 45 sec) were delivered through the grid floor. During the screening session (Day 2), the mice were placed in one of the two chambers of the apparatus for 5 min. A shock (0.45 mA) was then delivered, and the door between the two chambers was raised simultaneously. Crossing over into the second chamber terminated the shock. […] A total of 30 screening trials of escapable shocks were presented to each mouse with an average of 30 sec delay between each trial. Mice that developed helplessness behavior (>5 escape failures during the last 10 screening shocks) were administered with the respective drug 24 hours following screening (Day 3). During the LH test phase (Day 4), the animals were placed in the shuttle boxes and, after a 5-min adaptation period, a 0.45 mA shock was delivered concomitantly with door opening for the first five trials, followed by a 2-sec delay for the next 40 trials. Crossing over to the second chamber terminated the shock. […] A total of 45 trials of escapable shock were presented to each mouse with 30 sec inter-trial intervals. The number of escape failures was recorded for each mouse.

Data set [4] concerns mice. In words: Open field test (locomotor activity). To be noted: 1 hour after i.p. drug, Hydrochloride. Type of data set: in vivo. The procedure:
Mice were placed into individual open-field arenas (50 cm length×50 cm width×38 cm height; San Diego Instruments, San Diego, Calif., USA) for a 60-min habituation period. Mice were then injected with the respective drug and assessed for locomotor activity for another 60 min. Distance travelled was analyzed using TopScan v2.0 (CleverSys, Inc, Reston, Va., USA).

Data set [5] relates to Male C57BL/6J mice. In words: Chronic social defeat stress and social interaction/avoidance test. Type of data set: in vivo. To be noted: single i.p. injection, re-test 24 hours following treatment. How it is done: Male C57BL/6J mice underwent a 10-day chronic social defeat stress paradigm. Briefly, experimental mice were introduced to the home cage (43 cm length×11 cm width×20 cm height) of a resident aggressive retired CD-1 breeder, prescreened for aggressive behaviors, for 10 min. Following this physical attack phase, mice were transferred and housed in the opposite side of the resident's cage divided by a Plexiglas perforated divider, in order to maintain continuous sensory contact. This process was repeated for 10 days. Experimental mice were introduced to a novel aggressive CD-1 mouse each day. On day 11, test mice were screened for susceptibility in a social interaction/avoidance choice test. The social interaction apparatus consisted of a rectangular three-chambered box (mouse conditioned-place preference chamber; Stoelting Co., Wood Dale, Ill., USA), see FIG. 7b) comprised of two equal sized end-chambers and a smaller central chamber. The social interaction/avoidance choice test consisted of two 5-min phases. During the habituation phase, mice explored the empty apparatus. During the test phase, two small wire cages (Galaxy Cup, Spectrum Diversified Designs, Inc., Streetsboro, Ohio, USA), one containing a “stranger” CD-1 mouse and the other one empty, were placed in the far corners of each chamber. The time spent interacting (nose within close proximity of the cage) with the “stranger” mouse versus the empty cage was analysed using TopScan video tracking software (CleverSys, Reston, Va.). Locomotor activity (total distance moved over 5 min) and number of total crosses into and out of the central chamber were also measured. The social interaction ratio was calculated by dividing the time spent interacting with the “stranger” by the time spent with the empty cage. Mice having a social interaction ratio higher than 1.0 were considered resilient and mice with a social interaction ratio lower than 1.0 were considered susceptible. On day 13 resilient and susceptible mice received an i.p. injection of either saline, (R,S)-KET (20 mg/kg; chosen based upon dose previously effective in C57BL/6J mice^31), MK-801 (0.1 mg/kg) or (2R,6R)-HNK (20 mg/kg). Mice were re-tested for social interaction/avoidance on […] (24 hours following treatment).

The subject of data set [6] is mice. The data set is described as follows: Quantitative EEG, cortical oscillation power. Type of data set: in vivo. The settings on record: NBQX before (2R,6R)-HNK. How it is done: EEG experiments were performed according to Raver et al., (Neuropsychopharmacology, 38, 2338-2347 (2013)) with minor modifications. Mice were anesthetized with isoflurane and kept under anesthesia throughout the surgery. An F20-EET radio-telemetric transmitter (Data Sciences International, Minneapolis, Minn.) was implanted subcutaneously and its leads implanted over the dura above the frontal cortex (1.7 mm anterior to bregma) and the cerebellum (6.4 mm posterior to bregma). Animals recovered from surgery for 7 days before recordings.
Mice were singly housed and acclimated to the behavioral room for 24 hours prior to EEG recordings. EEGs were recorded using the Dataquest A.R.T. acquisition system (Data Sciences International) with frontal EEG recordings referenced to the cerebellum. Baseline EEG (10 min) recordings were followed by an i.p. injection of saline, ketamine (10 mg/kg) or (2R,6R)-HNK (10 mg/kg) and 40 min of post-injection recordings.
ECoGs were analyzed using custom-written MATLAB scripts (Version 2012a, Mathworks, Mass.) and the mtspecgramc routine in the Chronux Toolbox (http://chronux.org; Mitra and Bokil, 2008). Oscillation power in each bandwidth (δ=1-3 Hz; θ=4-7 Hz; α=8-12 Hz; β=13-29 Hz; γ=30-80 Hz) was computed in 10 min bins from spectrograms for each animal.

Data set [7] deals with mice. The data set is described as follows: Drug discrimination in ketamine-trained mice. Type of data set: in vivo. To be noted: for ketamine-associated discriminative stimulus: mice trained to discriminate ketamine (10 mg/kg) from saline. The procedure:
Mice were food restricted until they reached 85% of their initial body weight and were maintained at 85% throughout the duration of the experiment Animals were trained to lever press for food (20 mg sucrose pellets; TestDiet, St. Luis, Mo., USA) in standard two lever-operant conditioning chambers (Coulbourn Instruments, Whitehall, Pa., USA), under a fixed-ratio 5 of reinforcement (FR5) in daily 30-min sessions. When stable responding was succeeded over 3 consecutive sessions (average of 40 training sessions), mice were trained to discriminate ketamine (10 mg/kg) from saline (7.5 ml/kg) under a double alternation schedule (e.g., ketamine, ketamine, saline, saline). The subjects received either ketamine (10 mg/kg; i.p.) or saline (7.5 ml/kg) 15 minutes prior to the start of the 30-minute session. […] Drug discrimination test sessions were conducted when mice reached the following criteria: (1) first FR5 completed on the correct lever, and (2)≥85% correct lever responding over the entire session. During the test sessions mice were administered with saline (7.5 ml/kg), ketamine (10 mg/kg), phencyclidine (PCP; 3 mg/kg) or (2R,6R)-HNK (10 and 50 mg/kg). […] Recording of responses and pellet delivery were controlled and calculated by an automated computer system (Graphic State v3.1; Coulbourn Instruments, Whitehall, Pa., USA).

The mark [8] stands for this setting: 24 hours post-injection (sustained).

Structures are written as SMILES. “Also recorded” adds a separate entry of the source.

Data on six molecules can be found in US20190083420A1, “METHODS OF USING (2R, 6R)-HYDROXYN[…] (2S, 6S)-HYDROXYN[…] THE TREATMENT OF DEPRESSION, ANXIETY, ANHEDONIA, FATIGUE, SUICIDAL IDEATION, AND POST TRAUMATIC STRESS DISORDERS” (The Uinited States of America, as represented by the …, priority 2016, published 2019).

For `NC1(c2ccccc2Cl)CCCCC1=O` (racemic) [norketamine, (R,S)-norketamine], the “brain levels following ketamine administration, female mice compared to males” value in data set [1] (brain) is listed as “equivalent levels”.
In the case of `Cl.[2H]C1([2H])CCCC(NC)(c2ccccc2Cl)C1=O` (centres unmarked) [6,6-dideuteroketamine, 2-(2-Chlorophenyl)-6,6-Dideutero-2-(Methylamino)Cyclohexanone Hydrochloride], the “antidepressant effect in the FST (immobility time)” value (shortened to “antidepressant effect in the FST”) in data set [2] (setting [8]) was “did not induce antidepressant actions”. The “antidepressant-like effect in learned helplessness (escape failures)” value in data set [3] is reported as “did not induce antidepressant actions”. In addition, the “locomotor activity in the open-field test” value in data set [4] is “did not change or NMDA-mediated hyperlocomotion”; in data set [4] (listed as (R,S)-6,6-dideuteroketamine), “equally potent in inducing a hyper-locomotor response”. For the same molecule, the “levels of ketamine in the brain” value in data set [1] (6,6-dideuteroketamine compared to ketamine) was “without changes to the levels of ketamine in the brain”.
As to `CNCCCN1c2ccccc2CCc2ccccc21` [desipramine], the “antidepressant effect in the FST” value in data set [2] (1- and 24-hours post-injection, times not separated) is “only decreased immobility time 1 hour post-injection”.
With `C[C@]12N[C@H](Cc3ccccc31)c1ccccc12` [MK-801], the “antidepressant effect in the FST” value in data set [2] (1 hour post-injection (acute)) is “antidepressant responses of both ketamine and MK-801 observed acutely”; in data set [2] (setting [8]), “does not exert sustained (24-hour) antidepressant-like effects”. Also, the “reversal of social interaction deficits / social avoidance induced by chronic social defeat stress” value in data set [5] is “does not exert sustained (24-hour) antidepressant-like effects in the FST, or reverse social interaction deficits”.
For `NS(=O)(=O)c1cccc2c1c([N+](=O)[O-])cc1[nH]c(=O)c(=O)[nH]c12` [NBQX, 2,3-dihydroxy-6-nitro-7-sulfamoyl-benzo[f]quinoxaline-2,3-dione], the “effect of NBQX pre-treatment on antidepressant-like actions in the FST” value in data set [2] (NBQX 10 minutes prior to (R,S)-ketamine or (2R,6R)-HNK, FST 1 hour or 24 hours later) was “prevented their antidepressant-like actions; also recorded: prevented both the 1- and 24-hour antidepressant effects of (2R,6R)-HNK”. Besides, in data set [2] (NBQX 30 min prior to the 24-hour FST (23.5 hours after ketamine or (2R,6R)-HNK)), the “effect of NBQX given before the 24-hour FST on antidepressant effects” value was “prevented the antidepressant actions of both ketamine and (2R,6R)-HNK; also recorded: prevented the antidepressant effects of both (R,S)-KET and (2R,6R)-HNK”. Moreover, in data set [6], the “effect of NBQX pre-treatment on (2R,6R)-HNK-induced increases in gamma oscillations” value was “prevented (2R,6R)-HNK-induced increases in gamma power; also recorded: prevented (2R,6R)-HNK-induced increases of gamma oscillations”; the “effect of NBQX pre-treatment on locomotor activity and alpha, beta, delta, theta oscillations” value is “did not change”.
As for `c1ccc(C2(N3CCCCC3)CCCCC2)cc1` [phencyclidine, reference compound], in data set [7] (drug discrimination paradigm), the “response rate of overall lever pressing per sec” value is “not changed”. The figures for the ketamine-associated discriminative stimulus result in data set [7] and in data set [7] (listed as PCP) were “did” and “produced ketamine-like discriminative properties”, respectively.
